This note sets out measurements from paper PMC10487843, “Evaluation of Anticancer and Anti-Inflammatory Activities of Some Synthetic Rearranged Abietanes” (International Journal of Molecular Sciences, 2023).

Holding throughout (format): cell-based
Assay [1] concerns human hepatocarcinoma (HepG2). The assay can be described thus: MTT cell viability assay, HepG2. Particulars: for IC80: 80% growth inhibition. The source says: (§1) In this study, we employed the MTT (3-(4,5-dimethyl thiazol-2-yl)-2,5-diphenyltetrazolium bromide) colorimetric assay to evaluate the cytotoxic activity of selected abietanes (compounds 5, 7, 13, 17, and 19) against three tumor cell lines: human colon adenocarcinoma (HT29), human hepatocarcinoma (HepG2), and murine melanoma (B16–F10). The MTT assay relied on the conversion of MTT to formazan by viable cells, with the formazan concentration proportional to the number of viable cells. The concentrations required for 50 and 80% growth inhibition (IC50 and IC80) were determined for each compound.
(§2) The human colorectal adenocarcinoma cell line HT29 (ECACC no. 9172201; ATCC no. HTB-38), the human hepatocarcinoma cell line HepG2 (ECACC no. 85011430), the mouse melanoma cells B16–F10 (ATCC no. CRL-6475), and the murine monocyte/macrophage like RAW 264.7 cell line (ATCC no, TIB-71) were obtained from the cell bank of the University of Granada, Spain. The tumor cell lines were cultured in DMEM (Dulbecco’s modified Eagle’s medium) supplemented with 2 mM glutamine, 10% heat-inactivated FCS (fetal calf serum), and 50 μg/mL of gentamicin (for all cancer cell lines). The RAW 264.7 cell line was cultured in RPMI1640 medium, supplemented with 2 mM glutamine, 10% heat-inactivated FCS, and 50 μg/mL of gentamicin. All cell lines were incubated at 37 °C, in an atmosphere of 5% CO2 and 95% humidity. The culture media were changed every 48 h, and the confluent cultures were separated with a trypsin solution (0.25% EDTA). In all experiments, monolayer cells were grown to 80–90% confluence in sterile cell culture flasks.
(§3) The effects of the compounds on the cell viability were established using the MTT method (Sigma, St. Louis, MO, USA). The cytotoxicity of the compounds was assessed by measuring the absorbance of MTT dye staining of metabolically competent cells. The cells were cultivated in 96-well plates at 6.0 × 10^3 cells/mL for the HT29 and RAW 264.7 cell lines, at 5.0 × 10^3 cells/mL for B16–F10 cells, and 15.0 × 10^3 cells/mL for the HepG2 cell line, with a final volume of 200 μL per well being incubated with the different products (0–100 μg/mL). After 72 h, 100 μL of MTT solution (0.5 mg/mL) in 50% of PBS and 50% of the medium was added to each well. Following incubation for 1.5 h, formazan was resuspended in 100 μL of DMSO, and each concentration was tested in triplicate. The cell viability relative to the untreated control cells was determined by measuring the absorbance at 570 nm using an ELISA plate reader (Tecan Sunrise MR20–301, TECAN, Grödig, Austria).
For orientation: Tetrazolium assays rely on reduction of a dye to a coloured formazan, in cell work by metabolically active cells.

The test system of assay [2] is murine melanoma (B16–F10). Kind of assay: MTT cell viability assay, B16-F10. Particulars: Mus musculus, 72 h; for IC80: 80% growth inhibition.
From the text: as §1, §2, §3

In assay [3] the test system is HT29, HepG2 and B16–F10 cell lines. Kind of assay: MTT cell viability assay, span over all three tumor cell lines. The settings on record: 72 h.
From the text: as §1
The human colorectal adenocarcinoma cell line HT29 (ECACC no. 9172201; ATCC no. HTB-38), the human hepatocarcinoma cell line HepG2 (ECACC no. 85011430), the mouse melanoma cells B16–F10 (ATCC no. CRL-6475), and the murine monocyte/macrophage like RAW 264.7 cell line (ATCC no, TIB-71) were obtained from the cell bank of the University of Granada, Spain. […]
The effects of the compounds on the cell viability were established using the MTT method (Sigma, St. Louis, MO, USA). The cytotoxicity of the compounds was assessed by measuring the absorbance of MTT dye staining of metabolically competent cells. […] The cell viability relative to the untreated control cells was determined by measuring the absorbance at 570 nm using an ELISA plate reader (Tecan Sunrise MR20–301, TECAN, Grödig, Austria).

[4] abbreviates: Homo sapiens, HepG2, 72 h, read-out: IC50.

≈ marks a conversion by molar mass, not a printed value. Like-named read-outs stand apart in the source and are kept apart here.

By IC50 is commonly meant the concentration at which inhibition is half-maximal. As usually defined, the IC80 is the concentration needed for an effect of 80%.

On to `CC(C)C1=CC2=C(C(=O)C1=O)C1=CC(=O)CC(C)(C)[C@@]1(C)C=C2` [Compound 5, Pygmaeocin B], for which the IC50 in assay [1] (72 h, listed as Pygmaeocin B (5)) amounted to 8.99 ± 1.12 µg/mL (≈ 29 µM); in assay [1] (setting [4]), 8.98 µg/mL (≈ 28.9 µM); in assay [2], 13.6 ± 0.14 µg/mL (≈ 43.9 µM). For the same molecule, the IC80 is 11.4 ± 1.08 µg/mL (≈ 36.8 µM) in assay [1] (Homo sapiens, 72 h) and 14.04 ± 0.08 µg/mL (≈ 45.2 µM) in assay [2].
Consider `CC(C)C1=CC2=C(C(=O)C1=O)[C@@]1(C)CCCC(C)(C)[C@@H]1CC2` [Compound 13], for which the IC50 in assay [3] (read-out: IC50 values, range in all three cell lines) is 2.67 to 5.58 µg/mL (≈ 8.89 to 18.6 µM); in assay [1] (setting [4]) it was 5.58 ± 0.93 µg/mL (≈ 18.6 µM); in assay [2], 4.14 ± 0.25 µg/mL (≈ 13.8 µM). Further, the IC80 in assay [3] (read-out: IC80 values, range in all three cell lines) was 5.19 to 7.67 µg/mL (≈ 17.3 to 25.5 µM); in assay [1] (Homo sapiens, 72 h), 7.67 ± 0.8 µg/mL (≈ 25.5 µM); in assay [2] it was 5.41 ± 0.25 µg/mL (≈ 18 µM).
